From patent US11426415B2, “Treatment for Wolfram syndrome and other endoplasmic reticulum stress disorders” (Washington University, priority 2017, dated 2022)
Like-named read-outs stand apart in the source and are kept apart here.

Assays:
mouse model of SCA = conditions: given with a RyR inhibitor; cited from earlier work
INS-1 823/13 cells = assay: Thapsigargin-mediated cell death (caspase 3/7-Glo luminescence); type: cell-based; conditions: pretreated 24 hours, then 0.5 nM thapsigargin overnight; FIGS. 7-9
Text: (§1) A Caspase 3/7 assay (Promega, Madison, Wis.) was utilized to measure caspase-3 and -7 activities in various cell lines. The assay provides a proluminescent caspase-3/7 substrate, which contains the tetrapeptide sequence DEVD. This caspase-3/7 substrate can be added directly to cell lysates. The substrate is cleaved to release an aminoluciferin, which is a substrate for luciferase used in the production of light. The signal is proportional to caspase-3/7 activity. The stabilized luciferase and proprietary buffer system improve assay performance across a wide range of assay conditions, and the assay is less likely to be affected by compound interference unlike fluorescent- or colorimetric-based assays
The pathway leading to calpain-2 activation provides potential therapeutic targets for Wolfram syndrome, such as leakage of ER calcium to the cytosol. To test this concept, a small-scale screen was performed to identify chemical compounds that could prevent cell death mediated by thapsigargin, a known inhibitor for ER calcium ATPase. INS-1 823/13 cells were pretreated with […] in media containing 0.5 nM of thapsigargin (TG) overnight. Apoptosis was detected by caspase 3/7-Glo luminescence.

[1] = Pharmacokinetic study of JTV519 in CD1 mice (UPLC-MS/MS); type: in vivo; conditions: for AUC(0-inf) / Cmax / half-life / Kp: CD-1 mouse; for Kp: read-out: AUC ratio (with plasma)
Protocol: To study the pharmacokinetics of JTV519, the compound was synthesized as the HCl salt and formulated as a clear solution in 20% HP-β-CD in saline and intraperitoneally injected into CD1 mice. Samples of blood and pancreas tissue and whole brain and heart organs were collected from the mice and analyzed.
An ultra-performance liquid chromatography-tandem mass spectrometry (UPLC-MS/MS) method was developed to determine sample concentrations in the samples. Mass spectrometric analysis was performed on a Waters Xevo TQ-S triple quadrupole instrument using electrospray ionization in positive mode with the selected reaction monitoring (SRM). The MS/MS parameters were optimized by infusion compounds. The separation was performed on an Acquity BEH C18 column (50×2.1 mm, 1.7μ) using a Waters Acquity UPLC system with 0.6 mL/min flow rate and gradient elution. The column temperature was maintained at 60° C. The calibration standards (1.0-5000 ng/mL) and quality control samples were prepared in the blank mouse plasma. 10 μL plasma samples were mixed with 200 μL internal standard in acetonitrile to precipitate proteins in a 96-well plate. 1.0 μL supernatant was injected for the UPLC-MS/MS analysis

INS-1 832/13 cells = assay: Cytosolic calcium levels by Fura-2AM in INS-1 832/13 cells challenged with thapsigargin; type: cell-based; conditions: range of concentrations, thapsigargin 1 μM added, FIGS. 5 and 6
Protocol: INS-1 832/13 cells were treated with JTV519 or JTV519-oxidized over a range of concentrations. Cytoplasmic calcium levels were measured by Fura-2AM calcium indicator over a period of minutes. Thapsigargin (1 μM) was added at the time point indicated by an arrow (n=6, the experiment was repeated 6 independent times) on FIGS. 5 and 6.

WFS1 gene knockout mice = assay: Motor function study, 90° inclined screen test; type: in vivo; conditions: i.p. 15 mg/kg/day, 5 days per week, 6 weeks, vs control mice, FIG. 11
Protocol: WFS1 gene knockout mice, a mouse model of Wolfram syndrome, were treated with JTV519 (i.p. injections, 15 mg/kg/day, 5 days per week) or saline after they become 6 weeks old for 6 weeks (5 female mice for each group). Littermate wild-type control mice were treated by saline (VEH) for 6 weeks (3 female mice). Motor functions of the WFS1 knockout were evaluated using a 90° inclined screen test.
For the 90° inclined screen test, each mouse was placed on top of an elevated (47 cm above the floor) wire mesh grid (16 squares per 10 cm) that was inclined to 90°. Each mouse was placed in the middle of the screen with its head oriented down and was timed for how long it remained on the screen and how long it took to climb to the top of the screen.

INS-1E cells = assay: Cytokine-induced cell death in INS-1E cells (caspase 3/7 activity assay); type: cell-based; conditions: 1 μM-50 μM for 24 hours, then IL-1β and IFN-γ 50 ng/ml for 24 hours; FIG. 10
Text: as §1
To determine whether JTV519 can prevent ER calcium depletion and confer protection against ER stress-mediated cell death in a cell model of type 1 diabetes. INS-1E cells were pre-treated with 1 μM-50 μM of JTV519 for 24 hours then stressed for 24 hours with cytokines (IL-1β and IFN-γ 50 ng/ml). Apoptotic cell death was measured via caspase 3/7 activity assay. […] Data are expressed as mean±SEM from three independent experiments. *p<0.05 compared to cytokine treated cells unpaired t-test.

[2] = test system: WFS1 depleted INS-1 832/13 cells; assay: Cell death in WFS1 depleted INS-1 832/13 cells (Caspase 3/7 activation); type: cell-based; conditions: pretreated 24 h with various concentrations, then DOX 48 h to deplete WFS1; FIGS. 3 and 4
Text: as §1
INS-1 832/13 cells in which WFS1 expression could be depleted by doxycycline (DOX)-inducible expression of shWFS1 were pretreated with or without various concentrations of JTV519 or oxidized JTV519 for 24 h and then treated with DOX for 48 h to deplete WFS1 and induce cell death. Apoptosis was measured by monitoring Caspase 3/7 activation.

[3] = conclusion from the pharmacokinetic study

O=C1CN(/N=C/c2ccc(-c3ccc([N+](=O)[O-])cc3)o2)C(=O)[N-]1.[Na+] [Dantrolene, 1-[[5-(4-nitrophenyl)-2-furyl]methylideneamino]imidazolidine-2,4-dione]
age dependent deficit of motor coordination (mouse model of SCA): ameliorated the age dependent deficit of motor coordination

COc1ccc2c(c1)CN(C(=O)CCN1CCC(Cc3ccccc3)CC1)CCS2 [JTV519, 3-(4-benzyl-1-piperidinyl)-1-(7-methoxy-2,3-dihydro-1,4-benzothiazepin-4(5H)-yl)-1-propanone]
thapsigargin mediated cell death (apoptosis, caspase 3/7-Glo) (INS-1 823/13 cells): did not significantly suppress thapsigargin mediated cell death
AUC(0-inf) ([1]; brain, ip 30 mg/kg, n = 3): 10100 ng·h/mL
Cmax ([1]; brain, ip 30 mg/kg, n = 3): 5130 ng/mL
half-life ([1]; brain, ip 30 mg/kg, n = 3): 5.1 h
Kp ([1]; brain, ip 30 mg/kg, n = 3): 2.9
permeability [1, 3]: good
solubility [1, 3]: good
blood brain barrier passage ([1]; conclusion from the pharmacokinetic study, ip 30 mg/kg, mice): passed the blood brain barrier
AUC(0-inf) ([1]; heart, ip 30 mg/kg, n = 3): 29200 ng·h/mL
Cmax ([1]; heart, ip 30 mg/kg, n = 3): 14300 ng/mL
half-life ([1]; heart, ip 30 mg/kg, n = 3): 4 h
Kp ([1]; heart, ip 30 mg/kg, n = 3): 8.4
AUC(0-inf) ([1]; pancreas, ip 30 mg/kg, n = 3): 146000 ng·h/mL
Cmax ([1]; pancreas, ip 30 mg/kg, n = 3): 105000 ng/mL
half-life ([1]; pancreas, ip 30 mg/kg, n = 3): 4.5 h
Kp ([1]; pancreas, ip 30 mg/kg, n = 3): 42
AUC(0-inf) ([1]; plasma, ip 30 mg/kg): 3460 ng·h/mL
half-life ([1]; plasma, ip 30 mg/kg): 7.1 h
Cmax ([1]; plasma, ip 30 mg/kg, HCl salt in 20% HP-β-CD in saline): 1810 ng/mL
cytosolic calcium levels (INS-1 832/13 cells): decreased cytosolic calcium levels
motor functions (time to reach the top of the screen) (WFS1 gene knockout mice): improved motor functions
cytokine-induced cell death (caspase 3/7 activity) (INS-1E cells): protects INS-1E cells from cytokine-induced cell death
cell death (apoptosis, Caspase 3/7 activation) [2]: suppress cell death
